Where “and” joins values, the source holds several entries; their conditions need not be identical. Equal entries are not always repeated.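 Values below derive from 48-hour exposures of cells grown in 96-well plates, with endpoints linearly interpolated between the two concentrations bracketing the appropriate inhibition level. GI50 = concentration required for 50% inhibition of growth. At the TGI there is no net growth.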
Legend:
Assay in all cases: NCI anticancer screen, dose series, 48 h
CAKI-1 renal = test system: CAKI-1 renal
HL-60(TB) leukemia = test system: HL-60(TB) leukemia
HOP-92 NSCLC = test system: HOP-92 NSCLC
HT29 colon = test system: HT29 colon
M14 melanoma = test system: M14 melanoma
MOLT-4 leukemia = test system: MOLT-4 leukemia
NCI-H23 lung = test system: NCI-H23 lung
RPMI-8226 leukemia = test system: RPMI-8226 leukemia
SF-295 CNS = test system: SF-295 CNS
SK-MEL-2 melanoma = test system: SK-MEL-2 melanoma

Row | SMILES | GI50 (CAKI-1 renal) [µM] | TGI (CAKI-1 renal) [µM] | GI50 (HL-60(TB) leukemia) [µM] | TGI (HL-60(TB) leukemia) | GI50 (HOP-92 NSCLC) [µM] | TGI (HOP-92 NSCLC) | GI50 (HT29 colon) [µM] | TGI (HT29 colon) | GI50 (M14 melanoma) [µM] | TGI (M14 melanoma) | GI50 (MOLT-4 leukemia) [µM] | TGI (MOLT-4 leukemia) | GI50 (NCI-H23 lung) [µM] | TGI (NCI-H23 lung) | GI50 (RPMI-8226 leukemia) | TGI (RPMI-8226 leukemia) | GI50 (SF-295 CNS) [µM] | TGI (SF-295 CNS) | GI50 (SK-MEL-2 melanoma) [µM] | TGI (SK-MEL-2 melanoma)
1 | OCCNc1nc2ccccc2c2[nH]c3ccccc3c12 | 0.529 | 8.9 | 0.349 | 1.95 µM | 0.943 | 13.2 µM | 0.321 | 2.71 µM | 0.699 | 2.03 µM | 0.24 | 1.48 µM | 0.496 | 1.88 µM | 0.388 µM | 3.91 µM | 0.314 | 2.42 µM | 0.907 | 3.29 µM
2 | CCCCCCCCCCCCCC(=O)O[C@H]1CC[C@H](NC(=O)[C@H](OC)[C@H](O)[C@@H](O)[C@H](O)/C=C/C(C)C)C(=O)N(C)C1 | – | 0.668 | 0.00238 | 2.43 µM and 3.71 µM | – | 0.0541 µM | 0.00238 | 15 µM and 3.07 µM | 0.00238 | 1.75 µM and 0.413 µM | 0.00238 | 15 µM and 5.24 µM | 0.00328 | 0.15 µM and 0.056 µM | 0.00392 µM | 15 µM and 8.02 µM | 0.00238 | 15 µM and 3.03 µM | 0.0156 | 15 µM and 6.33 µM
3 | CN(C)CCNC(=O)Nc1ccc(N(C)c2ccnc(Nc3ccc(CS(C)(=O)=O)cc3)n2)cc1 | > 25 | > 25 | > 25 | > 25 µM | 6.99 | > 25 µM | > 25 | > 25 µM | > 25 | > 25 µM | > 25 | > 25 µM | > 25 | > 25 µM | > 25 µM | > 25 µM | > 25 | > 25 µM | > 25 | > 25 µM
4 | CCCCCCCCCC1CC(=O)OC23CCCC(=O)C12O3 (stereo not given) | – | > 100 | – | 69.2 µM | – | > 100 µM | – | > 100 µM | – | > 100 µM | – | 71.4 µM | – | > 100 µM | – | > 100 µM | – | > 100 µM | – | > 100 µM
5 | O=C1C=CC2(O)OCC3C=C4O[C@@H]5OC6(CCCCC6)O[C@@H]5C4[C@@H]2[C@@H]13 (stereo not given in full) | – | 48.9 | – | 42.1 µM | – | 33.4 µM | – | 50.9 µM | – | 43.8 µM | – | 70.5 µM | – | 67.3 µM | – | 58.9 µM | – | > 100 µM | – | > 100 µM
6 | NC(=O)c1nc(-c2c(F)cccc2Cl)oc1Nc1ccc(C(=O)N2CCOCC2)cc1 | 1.44 | > 100 | 0.478 | 31.7 µM | 0.262 | 2.11 µM | 1.62 | > 100 µM | 13.7 | > 100 µM | 2.03 | 37.7 µM | 2.91 | > 100 µM | 7.44 µM | 50.7 µM | 1.61 | > 100 µM | 12.7 | 58.6 µM
7 | CC[n+]1c(-c2ccccc2)c2cc(N)ccc2c2ccc(N)cc21 | 66.2 | > 100 | – | 18 µM and 26.9 µM and 47.6 µM | 1.24 | 10.6 µM and 14.6 µM | 1.64 | 9.45 µM and 29 µM | 3.84 | 16.6 µM and 44.5 µM | 2.77 | 21.1 µM and 13 µM and 35.9 µM | 0.515 | 3.65 µM and 5.2 µM and 3.61 µM | 2.23 µM and 1.02 µM and 2.64 µM | > 100 µM and 10.4 µM and 24.3 µM | 1.51 | 13.7 µM and 15.5 µM and 29 µM | 1.11 | 3.8 µM and 6.55 µM
8 | N#CN1CC[C@H](C(=O)Nc2ncc(-c3ccccc3)s2)C1 | 1.65 | 4.26 | 0.269 | 0.652 µM | 0.662 | 4.25 µM | 0.313 | 1.82 µM | 0.495 | 2.22 µM | 0.309 | 2.04 µM | 0.705 | 6.46 µM | 0.27 µM | 0.854 µM | 1.22 | 6.44 µM | 0.274 | 0.726 µM
9 | C/C(CCN(C)C)=N/O | – | 24.2 | – | 13.5 µM | – | 25.5 µM | – | 10.3 µM | – | 21.9 µM | – | 4.82 µM | – | 25.5 µM | – | 11.4 µM | – | 81.5 µM | – | 31.5 µM
10 | O=C(CCCCN1CCN(CCCCC(=O)Nc2ccccc2C#C/C=C\C#Cc2ccccc2C(F)(F)F)CC1)Nc1ccccc1C#C/C=C\C#Cc1ccccc1C(F)(F)F | > 50 | > 50 | 11.9 | 24.6 µM | 4.14 | 11.5 µM | 7.11 | 26.2 µM | 11.7 | 25.9 µM | 8.55 | 27 µM | 13.8 | 38.9 µM | 7.46 µM | 19.1 µM | 19 | > 50 µM | 12.4 | 29.9 µM
11 | CCN(CC)CCCC(Nc1c2ccc(Cl)cc2nc2ccc(OC)cc12)c1ccc(Cl)cc1 (stereo not given) | 1.17 | 2.44 | 1.48 | 3.23 µM | 1.15 | 2.81 µM | 0.45 | 1.75 µM | 0.199 | 0.411 µM | 0.761 | 2.3 µM | 1.43 | 2.98 µM | 0.449 µM | 1.8 µM | 1.3 | 2.77 µM | 1.89 | 3.63 µM
12 | CO[C@H]1C(=O)[C@]2(C)[C@@H](OC)C[C@H]3OC[C@@]3(OC(C)=O)[C@H]2[C@H](OC(=O)c2ccccc2)[C@]2(O)C[C@H](OC(=O)[C@H](O)[C@@H](NC(=O)OC(C)(C)C)c3ccccc3)C(C)=C1C2(C)C | – | > 52.9 | < 0.01 | < 0.01 µM | – | 33 µM | < 0.01 | 11.5 µM | < 0.01 | 17.8 µM | < 0.0114 | 27.8 µM | < 0.01 | > 100 µM | < 0.01 µM | > 38 µM | < 0.01 | 23.9 µM | < 0.01 | 0.973 µM
13 | COC(=O)C1CCC(C)CC1=O (stereo not given) | – | > 100 | – | > 100 µM | – | > 100 µM | – | > 100 µM | – | > 100 µM | – | > 100 µM | – | > 100 µM | – | > 100 µM | – | > 100 µM | – | > 100 µM

Reference: PubChem BioAssay (NCI)
